The nature of data set [1]: stability / degradation in rat blood. The data set is classed as in vitro ADME. To be noted: for stability in blood / degradants detected: rat blood diluted with PBS; for degradants detected: UHPLC-TOF MS. As to the method:
(§1) Test compounds were spiked at 10 μg/ml into either PBS or blood (Male Wistar rat or Human) diluted with PBS, and a series of samples taken according to the following scheme:
(§2) Procaine, a compound known to be unstable in blood, was included as a positive control (ran with 5-fold diluted blood only). The sampling procedure was to add an aliquot to ice-cold acetonitrile, centrifuge, and store the supernatant on dry ice until analysis. Analysis by UHPLC-TOF mass spectrometry using electrospray ionisation was performed on the same day as the incubations were performed.

The nature of data set [2]: stability / degradation in human blood. Type of data set: in vitro ADME. As to the method:
as §1, §2

For data set [3], the system named is PC12 cells. Kind of data set: AChE activity assay (Ellman reagent) in PC12 cells treated with T30. The data set is classed as cell-based. To be noted: combined with T30 (1 μM). As to the method:
AChE activity was measured using the Ellman reagent that measures the presence of thiol groups as a result of AChE activity. In the case of the G4 experiment, AChE (G4) activity was tested alone and also together with either NBP14 or Tri peptides. PC12 cells were plated the day before the experiment as for the cell viability assay. Cells were treated with T30 (1 μM) alone or combined with NBP14 or Tri peptide (0.5 μM). After treatment, supernatant (perfusate) of each treatment was collected and 25 μL from each condition were added to a new flat bottomed 96 well plate followed by the addition of 175 μl of Ellman reagent (Solution A: KH2PO4 139 mM and K2HPO4 79.66 mM, pH 7.0; solution B (substrate): Acetylthiocholine Iodide 11.5 mM; Solution C (Reagent): 5,5′-dithiobis(2-nitrobenzoic acid) 8 mM and NaHCO3 15 mM). The Ellman reagent was prepared as a mixture of the 3 solutions in a ratio 33(A):3(B):4(C). Absorbance measurements were taken for an interval of 60 minutes across experiments at 405 nm in a Vmax plate reader (Molecular devices, Wokingham, UK).
In each of the different cell techniques, the statistics analysis was performed with the average of the percentage values of 3 or more experiments. […]
In general terms: Ellman's reagent forms a yellow product with free thiols.

Data set [4] concerns PC12 cells. Kind of data set: Calcium fluorometry (Fluo-8, PNU282987-induced calcium increase) in PC12 cells. Type of data set: cell-based. To be noted: in conjunction with T30, PC12 cells. As to the method:
PC12 cells were plated in 200 μl of Dulbecco's Modified Eagle's medium (DMEM) plus 2 mM of L-glutamine medium the day before the experiment in 96 well plates. On the day of the experiment, the Fluo-8 solution (Abcam) was prepared as described by the provider by adding 20 μl of Fluo-8 in the assay buffer that contains 9 ml of Hank's Balanced Salt Solution (HBSS) and 1 ml of pluronic F127 Plus. Subsequently, 100 μl of growth medium was removed and 100 μl of Fluo-8 solution were added. Treatments with T30 in conjunction with NBP14 or Tri peptides were added and incubated for 30 minutes in the incubator and 30 minutes room temperature. After 1 h, the plate was placed in the fluorescence plate reader (Fluostar, Optima, BMG Labtech, Ortenberg, Germany). Before reading the fluorescence, PNU282987 1 μM, an alpha7 specific agonist of the nicotinic receptors, was prepared and placed in the Fluostar injector. For each well, the reading was formed by a basal fluorescence reading followed by PNU282987 injection that induced an increase of calcium via nicotinic receptors.
In each of the different cell techniques, the statistics analysis was performed with the average of the percentage values of 3 or more experiments. Comparisons between multiple treatment groups and the same control were performed by one-way analysis of variance (ANOVA) and Tukey's post-hoc tests using GraphPAD Instat (GraphPAD software, San Diego, California). Statistical significance was taken at a p value<0.05.

Data set [5] concerns rat basal forebrain slices. The experiment in a line: voltage-sensitive dye imaging (VSDI) on brain slices, Example 5. Type of data set: cell-based. As to the method: Male Wistar rats (14 days old) were anaesthetised using isoflurane (˜15 ml, 100% w/w). Isoflurane was applied to the cotton bed at the bottom of an anaesthetic chamber (glass box 20×15×15 cm) where rats were then placed for approximately 45 s until complete anaesthesia was reached. The hind paw of each anaesthetised rat was pinched to check for the appropriate depth of anaesthesia. Upon confirmation of anaesthesia, rats were quickly decapitated, with the brain being quickly removed and immersed in ice cold oxygenated ‘slicing’ artificial cerebrospinal fluid (aCSF in mmol: 120 NaCl, 5 KCL, 20 NaHCO3, 2.4 CaCl2 2 MgSO4, 1.2 KH2PO4, 10 glucose, 6.7 HEPES salt and 3.3 HEPES acid; pH=7.1). Coronal slices (400 μm thick) were then taken from a block of brain containing the basal forebrain, namely the MS-dBB complex (between +9.20 and +9.48 mm Interaural and +0.48 and +0.2 mm Bregma, FIG. 4A) and the somatosensory barrel field cortex (SiBF, between +8.08 and +7.20 mm Interaural and −0.92 mm and −1.80 mm Bregma) (Paxinos and Watson, 1998) using a Vibratome (Leica VTi000S).
Slices were then transferred to a bubbler pot containing oxygenated aCSF at room temperature (recording aCSF in mmol: 124 NaCl, 5 KCL, 20 NaHCO3, 2.4 CaCl2 2 MgSO4, 1.3 KH2PO4, 10 glucose; pH=7.4) which was identical to that used in VSDI (voltage sensitive dye imaging) recording. Slices were then left for approximately 1-1.5 hours before preparing them for VSD staining.
Slices were placed in a dark, high humidity chamber filled with aCSF bubbled with 95% O2, 5% CO2. Once there, the dye solution (4% 0.2 mM styryl dye pyridinium 4-[2-[6-(dibutylamino)-2-napthalenyl]-ethenyl]-1-(3-sulfopropyl)hydroxide (Di-4-NEPPS), Invitrogen, Paisley, UK in 48% aCSF, 48% foetal bovine serum, 3.5% DMSO and 0.4% cremophore EL) (Tominaga et al., 2000) was applied to the slices for 20-25 minutes before being transferred back to a bubbler pot containing oxygenated aCSF kept at room temperature for 30 minutes.
When starting the VSDI recordings, slices were placed in the recording bath on a small piece of filter paper to allow the flow of oxygenated aCSF on the underside of the slice and in order to keep it alive. The slice was then weighed down by a home-made plastic grid that was placed on top of the slice. […] For the acquisition of VSD data, 2 dimensional images, equivalent to 88×60 pixels, were recorded using the MiCamo2 High Resolution camera (Brain Vision, Japan) with BV_Analyze imaging software. […] Light was generated using an Osram halogen xenophot 64634 HLX EFR Display/Optic lamp and was filtered to emit green (530±10 nm) light using a MHF-G150LR (Moritex Corporation) coupled to the MiCamo2 High resolution imaging system and filtered the emitted fluorescence through a >590 nm high pass filter. […]

Data set [6] relates to rat basal forebrain slices. The experiment in a line: voltage-sensitive dye imaging (VSDI) on brain slices, Example 7. The data set is classed as cell-based. As to the method:
Brain slices were prepared as in Example 5.
Slices were placed in a dark, high humidity chamber filled with aCSF bubbling with 95% O2e5% CO2. Once there, the dye solution (4% 0.2 mM styryl dye pyridinium 4-[2-[6-(dibutylamino)-2-aphthalenyl]-ethenyl]-1-(3-sulfopropyl)hydroxide (Di-4-ANEPPS, Invitrogen, Paisley, UK) (Tominaga et al., 2000) in aCSF 48%, fetal bovine serum 48%, DMSO 3.5% and cremophore EL 0.4%) was applied to the slices for 20-25 min before being transferred to an aCSF bubbler pot (room temperature, 22 C+/−1.5 C) for 1 h to wash off excess dye and recover.
When starting VSD recordings, slices were placed in the recording bath on a small piece of filter paper to keep slice alive and was weighed down appropriately using a home-made plastic grid placed atop the slice. The perfusing bath solution was heated to 30+/−1 C by a stage heater. A concentric bipolar stimulating electrode (FHC, Maine, US) was placed in the ventral diagonal band of the basal forebrain with stimulation being set at 30 V. For acquiring of VSD data, 16-bit images were recorded with 1 ms resolution with a digital camera (Brain Vision MiCAM Ultima R3-V20 Master) with Ultima 2004/08 imaging software (Brain Vision) coupled to Spike 2 V6.0 (CED Ltd, Cambridge, UK) which was used to trigger stimulations with respect to appropriate ISI. […]

Setting [7] is: human blood diluted with PBS, 10 μg/ml, up to 60 min.

“Also recorded” adds a separate entry of the source. Where a SMILES comes first, the peptide text is derived from it. [ ]: non-standard residue; d: D form. Bpa = N[C@@H](Cc1ccc(C(=O)c2ccccc2)cc1)C(=O)O; Phe(4-NH2) = Nc1ccc(C[C@H](N)C(=O)O)cc1; hArg = N=C(N)NCCCC[C@H](N)C(=O)O

We go through 3 molecules from patent publication US11939398B2, “Modified peptides for use in treating neurodegenerative disorders” (Neuro-Bio Ltd, priority 2016, dated 2024).

On to `CSCC[C@@H]1NC(=O)[C@H](Cc2ccc(O)cc2)NC(=O)[C@H](CO)NC(=O)[C@H](CO)NC(=O)[C@H](Cc2c[nH]c3ccccc23)NC(=O)[C@H](CCCNC(=N)N)NC(=O)[C@H](Cc2c[nH]cn2)NC(=O)[C@H](Cc2ccccc2)NC(=O)[C@H](CCC(=O)O)NC(=O)[C@H](C)NC(=O)[C@H](CCCCN)NC(=O)[C@H](Cc2c[nH]c3ccccc23)NC(=O)[C@H](Cc2c[nH]cn2)NC(=O)[C@H](C(C)C)NC1=O` [NBP14, reference compound] (cyclo(AEFHRWSSYMVHWK)), for which the stability in blood entry in data set [1] (10 μg/ml, up to 60 min) is given as “good stability”; in data set [2] (setting [7]) it was “good stability”. Further, the degradants detected result in data set [1] was “no degradants were detected”; in data set [2] (human blood diluted with PBS, UHPLC-TOF MS), “no degradants were detected”. Besides, in data set [3], the “protection against T30-induced AChE activity” value is “protects against these toxic effects”. For the same molecule, the “protection against T30-induced calcium influx” value in data set [4] is recorded as “protects against these toxic effects”. The “blocking of T30-induced deviations from baseline (VSDI)” value in data set [5] (4 μM co-perfused with T30 (2 uM)) was “totally block the T30-induced effects”. Besides, in data set [5] (4 μM in perfusate, no T30), the “change in magnitude (summed fluorescence) of evoked responses, compound alone” value is reported as “small, non-significant alterations”.
Take `CCN(CC)CCOC(=O)c1ccc(N)cc1` [Procaine, reference compound]: the turnover in data set [1] (5-fold diluted rat blood, 10 μg/ml, up to 60 min) turned out to be 60%; in data set [2] (5-fold diluted human blood, 10 μg/ml, up to 60 min), 100%.
Take `CC(=O)N[C@@H](Cc1ccc(C(=O)c2ccccc2)cc1)C(=O)N[C@@H](CCCCNC(=N)N)C(=O)N[C@@H](Cc1ccc(N)cc1)C(N)=O` [Tri04, 4-((S)-2-((S)-2-((S)-2-acetamido-3-(4-benzoylphenyl)propanamido)-6-((amino(iminio)methyl)amino)hexanamido)-3-amino-3-oxopropyl)benzenaminium] (Ac-[Bpa]-[hArg]-[Phe(4-NH2)]-NH2): the stability in blood result in data set [1] (10 μg/ml, up to 60 min) is reported as “better stability than TRI-02”; in data set [2] (setting [7]), “better stability than TRI-02”. For the same molecule, the degradants detected entry in data set [1] is listed as “some degradants were still detected”. For the same molecule, the “protection against T30-induced calcium influx” value in data set [4] is on record as “protects the toxic effects of T30 by reducing calcium influx”. Further, the “effect on T30-induced inhibition of basal forebrain activity” value in data set [6] (2 μM Tri04 co-perfused with 2 μM T30, n=29) was “significant effect on basal forebrain population activity; also recorded: reversal of the inhibitory effect of T30; also recorded: increase in network activity; also recorded: protective role of Tri04 over T30”; in data set [6] (4 μM Tri04 co-perfused with 2 μM T30, n=20), “totally block the T30-induced effects; also recorded: recapitulates results previously seen with the application of 4 μM NBP14; also recorded: significant effect reversing T30 activity”.
